Reference: US20240181125A1, “COMPOSITIONS AND METHODS FOR SCARLESS WOUND HEALING IN DIABETES” (Washington University, priority 2022, published 2024)
“Also recorded” adds a separate entry of the source. Bridge positions count the residues as written; N and C are the ends. Peptide text beside a SMILES is read from it. * marks the point of attachment. FITC = O=C1OC2(c3ccc(O)cc3Oc3cc(O)ccc32)c2ccc(NC(=S)*)cc21

Key:
[1] = system: diabetic wounds of db/db mice; assay: Example 5 wound dressings on full-thickness excisional diabetic wounds; type: in vivo
Experimental: After three days post-wound assay on db/db mice, the wounded tissues were collected and lysed. The protein concentrations were quantified by Bradford assay. The samples were tested using a Proteome Profiler Mouse Angiogenesis Array kit (R&D Systems) and a Mouse Cytokine Array kit (R&D Systems). The intensities of the dots on the membranes in the kits were quantified using Image Lab software. Eight-week-old, female db/db mice were used. Carprofen tablets (1/4 tablet per mouse) were given orally 48 hours before surgery and continued for seven days after the surgery as an analgesic. One day before surgery, the blood glucose levels of the mice were tested with a glucometer to confirm they were above 300 mg/dL. The mice were anesthetized by isoflurane inhalation, and the dorsal surface was thoroughly shaved. Then a 5-mm diameter biopsy punch (VWR) was used to create two symmetric full-thickness wounds on the back of each mouse. Next, 100 μL of liquid wound dressing, with or without 50 μg/mL of PTβ[…], was applied topically to the wound sites. The mice were observed every other day, and digital photographs of the wounds, with a ruler at the side, were acquired by a digital camera. Wound sizes were calculated using Image J. For in vitro tests, protein lysates were collected from HDFs. Pre-cooled cell scrapers were used to detach the cells, and the cells were re-suspended in RIPA lysis buffer with the inhibitor cocktail. For in vivo tests, wound skin tissues were washed three times with pre-cooled DPBS, dissected into small pieces, and re-suspended in RIPA lysis buffer containing protease and phosphatase inhibitors. […] After centrifugation at 12,000 g for 20 min, the supernatants were collected, and protein concentrations were measured using a Bradford protein assay kit (Bio-rad). […] Immunoblots were then washed with PBST and detected with a WesternBright HRP substrate detection kit (Advansta). […] The epidermal thickness was calculated from the MTS images in the wounded region. […] Images were acquired by Olympus confocal microscope and analyzed using ImageJ.

[2] = system: THP-1-derived CD86+M1 macrophages; assay: mRNA expression (RT-PCR), M1 macrophages; type: cell-based, human; settings: high glucose and TGFβ1
Experimental: Macrophages were derived from THP-1, a human monocytic cell line (ATCC). THP-1 cells were treated with 100 ng/ml phorbol 12-myristate 13-acetate (PMA, Millipore-Sigma, P1585) for 48 hours, followed by 24 hours in RPMI 1640 medium (ATCC) with 10% FBS and 1% P/S. To induce differentiation into M1 macrophages, the cells were treated with 100 pg/mL lipopolysaccharide (LPS, Millipore-Sigma) and 20 ng/ml interferon-gamma (IFN-γ, Millipore-Sigma) for 48 hours.
To determine the mRNA expression of the cells (HDFs, HaCaTs, and HAECs) treated with TGFβ1 (10 ng/ml) or TGFβ1 (10 ng/ml)/PTβR2I (10 μg/mL) under high glucose conditions, RNA was extracted using Trizol (Invitrogen) and reverse transcribed using a cDNA synthesis kit (Applied Biosystems). Gene expression was performed by real-time RT-PCR, using Maxima SYBR Green/Fluorescein Master Mix (Thermofisher) and selected primer pairs, shown in Table 1 below. β-actin served as the housekeeping gene. The ΔΔCt method was used for data analysis.

HaCaTs = assay: Cell proliferation (dsDNA) under high glucose and TGFβ1, HaCaT; type: cell-based, human; settings: high glucose, TGFβ1 10 ng/ml, PTβR2I 10 μg/mL; p<0.05
Experimental: HDFs, HaCaTs, and HAECs were seeded in 96-well plates at respective densities of 1.5×10^4 cells/mL, 2×10^4 cells/mL, and 2×10^4 cells/mL. High glucose (4.5 g/L) basal medium with 1% P/S was used for the culture. After 24 hours, TGFβ1 (10 ng/ml) or TGFβ1 (10 ng/ml)/PTβR2I (10 μg/mL) was added to the medium. The culture continued for three days. The medium was then replaced by papain solution and incubated at 60° C. for 24 hours. The dsDNA content was tested using a Quant-iT™ PicoGreen dsDNA Assay Kit (Invitrogen).

In the case of `CC(C)C[C@@H]1NC(=O)CNC(=O)[C@@H](NC(=O)[C@@H](N)CCC(=O)O)CSSC[C@@H](C(=O)N[C@@H](CCCCNC(=S)Nc2ccc3c(c2)C(=O)OC32c3ccc(O)cc3Oc3cc(O)ccc32)C(=O)O)NC(=O)[C@H](CC(C)C)NC(=O)[C@H](CCCNC(=N)N)NC(=O)[C@H](Cc2c[nH]c3ccccc23)NC(=O)[C@H](C(C)C)NC(=O)[C@H](CCCNC(=N)N)NC(=O)[C@H](CC(=O)O)NC(=O)[C@@H]2CCCN2C(=O)[C@H](CCCNC(=N)N)NC(=O)CNC(=O)[C@H](C(C)C)NC(=O)[C@@H]2CCCN2C(=O)[C@H](CC(C)C)NC1=O` [PTβR2I, ECGLLPVGRPDRVWRLCK-FITC] (H-ECGLLPVGRPDRVWRLCK(FITC)-OH; disulfide 2-17; N-terminus and C-terminus assumed), the “expression of p-Smad2/3 in wounded skin” value ([1]; day 3) is reported as “downregulated”, the “expressions of p-Smad2/3 and α-SMA in wounded skin” value ([1]; day 8) is reported as “without compromising” and the “expression of p-p38 in wounded skin” value ([1]; days 3 and 8, vs Gel group) is reported as “downregulated; also recorded: continued to downregulate”. The “IL6 mRNA expression” value [2] was “significantly reduced”, the PDGFBB gene expression [2] was “significantly enhanced” and the “proliferation (dsDNA, day 3)” value (HaCaTs) was “Significantly improved proliferation”.
